Experimental data reported in PMC11571108, “Targeting PfCLK3 with Covalent Inhibitors: A Novel Strategy for Malaria Treatment” (Journal of Medicinal Chemistry, 2024).

What was measured:
EGFR(h) = EGFR(h) (Homo sapiens, UniProt P00533); assay: biochemical
Experimental: (§1) Compounds were evaluated using Eurofins Discovery’s KinaseProfiler Diversity Panel of 58 representative kinases. KinaseProfiler is a radiometric assay using [γ-^33P]-ATP to measure the phosphorylation of individual kinase substrates. A representative protocol for Abl is given below. Further details can be found by visiting the Eurofins Discovery Web site.
(§2) The reaction is initiated by the addition of the Mg/ATP mix. After incubation for 40 min at room temperature, the reaction is stopped by the addition of phosphoric acid to a concentration of 0.5%.

EphA5(h) = EphA5(h) (Homo sapiens, UniProt P54756); assay: biochemical
Experimental: as §1, §2

EphB4(h) = EphB4(h) (Homo sapiens, UniProt P54760); assay: biochemical
Experimental: as §1, §2

Fyn(h) = Fyn(h) (Homo sapiens, UniProt P06241); assay: biochemical
Experimental: as §1, §2

IGF-1R(h) = IGF-1R(h) (Homo sapiens, UniProt P08069); assay: biochemical
Experimental: as §1, §2

IKKα(h) = IKKα(h) (Homo sapiens, UniProt O15111); assay: biochemical
Experimental: as §1, §2

IRAK4(h) = IRAK4(h) (Homo sapiens, UniProt Q9NWZ3); assay: biochemical
Experimental: as §1, §2

JAK2(h) = JAK2(h) (Homo sapiens, UniProt O60674); assay: biochemical
Experimental: as §1, §2

KDR(h) = KDR(h) (Homo sapiens, UniProt P35968); assay: biochemical
Experimental: as §1, §2

LOK(h) = LOK(h) (Homo sapiens, UniProt O94804); assay: biochemical
Experimental: as §1, §2

Lyn(h) = Lyn(h) (Homo sapiens, UniProt P07948); assay: biochemical
Experimental: as §1, §2

MAPKAP-K2(h) = MAPKAP-K2(h) (Homo sapiens, UniProt P49137); assay: biochemical
Experimental: as §1, §2

MEK1(h) = MEK1(h) (Homo sapiens, UniProt Q02750); assay: biochemical
Experimental: as §1, §2

MLK1(h) = MLK1(h) (Homo sapiens, UniProt P80192); assay: biochemical
Experimental: as §1, §2

MSK2(h) = MSK2(h) (Homo sapiens, UniProt O75676); assay: biochemical
Experimental: as §1, §2

MST1(h) = MST1(h) (Homo sapiens, UniProt Q13043); assay: biochemical
Experimental: as §1, §2

Mnk2(h) = Mnk2(h) (Homo sapiens, UniProt Q9HBH9); assay: biochemical
Experimental: as §1, §2

NEK2(h) = NEK2(h) (Homo sapiens, UniProt P51955); assay: biochemical
Experimental: as §1, §2

PAK2(h) = PAK2(h) (Homo sapiens, UniProt Q13177); assay: biochemical
Experimental: as §1, §2

PDGFRβ(h) = PDGFRβ(h) (Homo sapiens, UniProt P09619); assay: biochemical
Experimental: as §1, §2

PI3 Kinase (p120g)(h) = PI3 Kinase (p120g)(h) (Homo sapiens, UniProt P48736); assay: biochemical
Experimental: as §1, §2

PKA(h) = PKA(h) (Homo sapiens, UniProt P17612); assay: biochemical
Experimental: as §1, §2

PKBα(h) = PKBα(h) (Homo sapiens, UniProt P31749); assay: biochemical
Experimental: as §1, §2

PKCα(h) = PKCα(h) (Homo sapiens, UniProt P17252); assay: biochemical
Experimental: as §1, §2

PKCθ(h) = PKCθ(h) (Homo sapiens, UniProt Q04759); assay: biochemical
Experimental: as §1, §2

PKG1α(h) = PKG1α(h) (Homo sapiens, UniProt Q13976); assay: biochemical
Experimental: as §1, §2

PRAK(h) = PRAK(h) (Homo sapiens, UniProt Q8IW41); assay: biochemical
Experimental: as §1, §2

Pim-1(h) = Pim-1(h) (Homo sapiens, UniProt P11309); assay: biochemical
Experimental: as §1, §2

Plk3(h) = Plk3(h) (Homo sapiens, UniProt Q9H4B4); assay: biochemical
Experimental: as §1, §2

ROCK-I(h) = ROCK-I(h) (Homo sapiens, UniProt Q13464); assay: biochemical
Experimental: as §1, §2

Rse(h) = Rse(h) (Homo sapiens, UniProt Q06418); assay: biochemical
Experimental: as §1, §2

Rsk1(h) = Rsk1(h) (Homo sapiens, UniProt Q15418); assay: biochemical
Experimental: as §1, §2

SAPK2a(h) = SAPK2a(h) (Homo sapiens, UniProt Q16539); assay: biochemical
Experimental: as §1, §2

SRPK1(h) = SRPK1(h) (Homo sapiens, UniProt Q96SB4); assay: biochemical
Experimental: as §1, §2

TAK1(h) = TAK1(h) (Homo sapiens, UniProt O43318); assay: biochemical
Experimental: as §1, §2

eEF-2K(h) = eEF-2K(h) (Homo sapiens, UniProt O00418); assay: biochemical
Experimental: as §1, §2

mTOR(h) = mTOR(h) (Homo sapiens, UniProt P42345); assay: biochemical
Experimental: as §1, §2

p70S6K(h) = p70S6K(h) (Homo sapiens, UniProt P23443); assay: biochemical
Experimental: as §1, §2

physchem = conditions: pH 7.5, GSH t1/2, 37 °C, 10:1 ratio GSH:compound
CK1γ1(h) = CK1γ1(h) (Homo sapiens, UniProt Q9HCP0); assay: biochemical
CK2α2(h) = CK2α2(h) (Homo sapiens, UniProt P19784); assay: biochemical
CK2α2(h), sequence (P19784 whole entry): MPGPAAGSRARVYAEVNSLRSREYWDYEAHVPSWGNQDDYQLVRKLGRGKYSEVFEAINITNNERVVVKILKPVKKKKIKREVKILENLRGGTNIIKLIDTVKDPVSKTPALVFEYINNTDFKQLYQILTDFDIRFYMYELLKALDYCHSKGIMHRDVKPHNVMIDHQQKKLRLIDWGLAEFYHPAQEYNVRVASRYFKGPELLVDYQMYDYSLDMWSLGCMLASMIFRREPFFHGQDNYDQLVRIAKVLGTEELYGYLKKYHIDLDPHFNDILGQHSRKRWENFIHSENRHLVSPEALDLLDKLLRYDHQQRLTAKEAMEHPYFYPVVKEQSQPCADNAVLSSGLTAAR

PKCθ(h), sequence (Q04759 whole entry): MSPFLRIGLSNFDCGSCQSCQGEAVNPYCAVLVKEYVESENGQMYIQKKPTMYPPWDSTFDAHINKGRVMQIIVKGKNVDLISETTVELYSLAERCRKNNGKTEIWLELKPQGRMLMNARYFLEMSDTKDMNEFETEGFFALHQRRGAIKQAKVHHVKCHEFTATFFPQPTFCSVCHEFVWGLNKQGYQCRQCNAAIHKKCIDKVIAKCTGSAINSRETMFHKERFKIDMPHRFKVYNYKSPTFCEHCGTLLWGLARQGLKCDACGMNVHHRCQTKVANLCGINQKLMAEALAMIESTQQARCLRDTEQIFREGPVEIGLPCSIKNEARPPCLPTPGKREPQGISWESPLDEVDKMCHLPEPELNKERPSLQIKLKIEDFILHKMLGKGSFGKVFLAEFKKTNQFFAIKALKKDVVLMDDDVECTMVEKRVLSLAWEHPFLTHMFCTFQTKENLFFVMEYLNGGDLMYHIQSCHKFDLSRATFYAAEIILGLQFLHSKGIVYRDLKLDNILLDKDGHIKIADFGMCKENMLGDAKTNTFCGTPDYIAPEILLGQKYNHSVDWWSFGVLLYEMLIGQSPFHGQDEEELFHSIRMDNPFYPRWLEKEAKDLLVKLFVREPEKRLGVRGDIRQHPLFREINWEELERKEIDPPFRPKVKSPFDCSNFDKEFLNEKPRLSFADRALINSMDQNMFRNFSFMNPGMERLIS
EGFR(h), sequence (P00533 25-1210): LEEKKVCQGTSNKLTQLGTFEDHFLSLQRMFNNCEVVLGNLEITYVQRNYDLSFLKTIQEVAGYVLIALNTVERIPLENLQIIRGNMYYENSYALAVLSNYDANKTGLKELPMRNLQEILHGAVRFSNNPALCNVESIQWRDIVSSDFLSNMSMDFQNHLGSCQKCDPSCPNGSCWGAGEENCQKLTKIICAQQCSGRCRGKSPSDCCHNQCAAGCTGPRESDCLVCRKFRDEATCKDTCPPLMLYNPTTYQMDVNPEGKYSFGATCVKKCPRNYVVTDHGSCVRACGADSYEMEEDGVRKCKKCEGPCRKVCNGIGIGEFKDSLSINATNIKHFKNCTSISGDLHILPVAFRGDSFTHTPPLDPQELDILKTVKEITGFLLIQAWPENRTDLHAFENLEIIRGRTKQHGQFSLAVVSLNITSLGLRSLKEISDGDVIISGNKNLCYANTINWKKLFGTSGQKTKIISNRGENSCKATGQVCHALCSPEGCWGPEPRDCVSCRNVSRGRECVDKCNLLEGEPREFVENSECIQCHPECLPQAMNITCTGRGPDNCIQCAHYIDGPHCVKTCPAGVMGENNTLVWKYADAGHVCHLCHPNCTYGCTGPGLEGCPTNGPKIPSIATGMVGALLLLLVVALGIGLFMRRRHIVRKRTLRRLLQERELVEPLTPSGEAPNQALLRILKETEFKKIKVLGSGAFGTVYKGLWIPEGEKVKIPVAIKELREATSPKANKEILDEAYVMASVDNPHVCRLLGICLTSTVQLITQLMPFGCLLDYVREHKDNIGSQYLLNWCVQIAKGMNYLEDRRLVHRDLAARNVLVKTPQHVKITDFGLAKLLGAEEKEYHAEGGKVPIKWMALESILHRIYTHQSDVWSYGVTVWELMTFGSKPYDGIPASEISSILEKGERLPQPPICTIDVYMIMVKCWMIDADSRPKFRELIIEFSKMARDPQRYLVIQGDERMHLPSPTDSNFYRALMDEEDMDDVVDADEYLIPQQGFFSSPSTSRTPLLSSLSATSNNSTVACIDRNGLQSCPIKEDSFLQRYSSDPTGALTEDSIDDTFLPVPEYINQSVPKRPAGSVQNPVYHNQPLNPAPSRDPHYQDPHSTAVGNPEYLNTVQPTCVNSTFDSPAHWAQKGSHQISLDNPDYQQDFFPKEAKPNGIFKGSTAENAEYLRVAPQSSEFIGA
MAPKAP-K2(h), sequence (P49137 whole entry): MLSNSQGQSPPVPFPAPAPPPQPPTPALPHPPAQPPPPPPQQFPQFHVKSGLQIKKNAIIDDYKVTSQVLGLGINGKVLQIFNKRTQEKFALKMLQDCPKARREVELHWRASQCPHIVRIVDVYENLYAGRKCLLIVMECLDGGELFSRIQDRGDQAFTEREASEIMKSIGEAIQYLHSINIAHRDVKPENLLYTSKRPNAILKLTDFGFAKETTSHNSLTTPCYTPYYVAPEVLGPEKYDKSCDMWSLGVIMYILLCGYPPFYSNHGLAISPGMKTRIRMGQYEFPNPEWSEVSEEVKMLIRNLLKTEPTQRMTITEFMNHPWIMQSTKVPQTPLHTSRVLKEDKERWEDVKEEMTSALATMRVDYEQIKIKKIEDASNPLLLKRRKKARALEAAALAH
Lyn(h), sequence (P07948 whole entry): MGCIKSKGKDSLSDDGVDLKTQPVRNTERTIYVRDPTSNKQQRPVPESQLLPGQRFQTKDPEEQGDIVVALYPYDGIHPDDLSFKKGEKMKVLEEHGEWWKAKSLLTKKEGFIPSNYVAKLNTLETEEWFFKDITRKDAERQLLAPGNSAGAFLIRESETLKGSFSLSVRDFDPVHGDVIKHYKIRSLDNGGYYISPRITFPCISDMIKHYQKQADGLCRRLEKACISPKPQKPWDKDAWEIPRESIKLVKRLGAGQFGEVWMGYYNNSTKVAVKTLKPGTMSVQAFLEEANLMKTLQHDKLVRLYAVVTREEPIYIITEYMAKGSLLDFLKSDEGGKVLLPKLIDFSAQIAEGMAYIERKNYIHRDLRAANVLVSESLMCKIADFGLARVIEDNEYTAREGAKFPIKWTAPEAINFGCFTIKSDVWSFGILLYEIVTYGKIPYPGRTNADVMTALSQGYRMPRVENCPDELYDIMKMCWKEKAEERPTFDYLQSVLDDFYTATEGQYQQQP
PAK2(h), sequence (Q13177 whole entry): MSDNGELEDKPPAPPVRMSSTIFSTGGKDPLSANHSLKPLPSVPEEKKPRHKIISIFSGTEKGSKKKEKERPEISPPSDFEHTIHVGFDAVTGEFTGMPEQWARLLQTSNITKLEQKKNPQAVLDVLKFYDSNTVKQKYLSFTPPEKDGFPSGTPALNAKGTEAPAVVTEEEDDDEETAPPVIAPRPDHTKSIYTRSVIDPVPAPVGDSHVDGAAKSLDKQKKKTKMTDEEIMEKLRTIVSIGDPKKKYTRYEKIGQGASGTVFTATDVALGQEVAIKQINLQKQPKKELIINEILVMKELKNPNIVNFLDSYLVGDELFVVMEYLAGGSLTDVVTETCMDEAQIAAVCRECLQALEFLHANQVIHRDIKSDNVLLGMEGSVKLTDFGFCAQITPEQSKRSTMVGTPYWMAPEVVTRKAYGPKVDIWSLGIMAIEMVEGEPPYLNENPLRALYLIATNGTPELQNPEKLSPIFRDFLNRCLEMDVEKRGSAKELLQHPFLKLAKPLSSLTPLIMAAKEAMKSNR
Mnk2(h), sequence (Q9HBH9 whole entry): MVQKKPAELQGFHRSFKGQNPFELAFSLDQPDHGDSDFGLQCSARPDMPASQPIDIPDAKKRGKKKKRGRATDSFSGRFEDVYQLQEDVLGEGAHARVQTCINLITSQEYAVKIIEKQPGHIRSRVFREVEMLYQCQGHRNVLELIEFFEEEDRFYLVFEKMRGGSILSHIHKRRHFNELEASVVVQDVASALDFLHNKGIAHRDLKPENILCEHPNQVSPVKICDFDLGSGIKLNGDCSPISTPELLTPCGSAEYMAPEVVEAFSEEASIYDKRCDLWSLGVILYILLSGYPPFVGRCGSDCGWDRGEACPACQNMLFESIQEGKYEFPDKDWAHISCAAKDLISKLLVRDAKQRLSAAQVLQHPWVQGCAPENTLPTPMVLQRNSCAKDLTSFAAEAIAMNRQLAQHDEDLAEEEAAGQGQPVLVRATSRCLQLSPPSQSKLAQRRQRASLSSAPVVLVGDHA
eEF-2K(h), sequence (O00418 whole entry): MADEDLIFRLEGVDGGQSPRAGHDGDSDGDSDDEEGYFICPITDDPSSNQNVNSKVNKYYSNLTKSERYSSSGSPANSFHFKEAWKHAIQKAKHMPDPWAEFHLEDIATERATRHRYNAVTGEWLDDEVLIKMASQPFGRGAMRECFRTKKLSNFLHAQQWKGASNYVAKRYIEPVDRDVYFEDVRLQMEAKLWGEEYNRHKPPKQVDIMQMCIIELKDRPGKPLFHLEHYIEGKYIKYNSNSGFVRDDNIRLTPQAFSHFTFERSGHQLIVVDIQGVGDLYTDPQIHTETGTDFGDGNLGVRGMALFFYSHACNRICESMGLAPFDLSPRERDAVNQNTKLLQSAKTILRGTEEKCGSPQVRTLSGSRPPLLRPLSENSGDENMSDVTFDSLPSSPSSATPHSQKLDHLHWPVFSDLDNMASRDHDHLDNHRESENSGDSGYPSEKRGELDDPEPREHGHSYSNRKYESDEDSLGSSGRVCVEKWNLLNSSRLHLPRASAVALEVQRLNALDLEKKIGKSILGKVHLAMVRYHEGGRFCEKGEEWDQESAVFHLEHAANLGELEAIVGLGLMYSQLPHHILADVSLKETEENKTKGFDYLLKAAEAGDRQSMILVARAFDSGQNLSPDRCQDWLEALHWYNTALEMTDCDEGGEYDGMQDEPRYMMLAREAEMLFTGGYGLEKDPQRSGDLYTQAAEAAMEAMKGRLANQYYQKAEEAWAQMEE

Work on `CCN(CC)Cc1ccc(OC)c(-c2cc3c(-c4ccc(C(=O)O)c(C(C)C)c4)ccnc3[nH]2)c1` [Compound 1, TCMDC-135051] yielded a remaining activity at 1 µM (EGFR(h)) of 95%, a remaining activity at 1 µM (EphA5(h)) of 97% and a remaining activity at 1 µM (EphB4(h)) of 104%. The remaining activity at 1 µM (Fyn(h)) was 49%, the remaining activity at 1 µM (IGF-1R(h)) was 94% and the remaining activity at 1 µM (IKKα(h)) was 93%. The remaining activity at 1 µM (IRAK4(h)) was 27%, the remaining activity at 1 µM (JAK2(h)) was 20% and the remaining activity at 1 µM (KDR(h)) was 61%. The remaining activity at 1 µM (LOK(h)) was 37%, the remaining activity at 1 µM (Lyn(h)) was 28% and the remaining activity at 1 µM (MAPKAP-K2(h)) was 94%. For the same molecule, the remaining activity at 1 µM (MEK1(h)) was 100%, the remaining activity at 1 µM (MLK1(h)) was 92% and the remaining activity at 1 µM (MSK2(h)) was 100%. For the same molecule, the remaining activity at 1 µM (MST1(h)) was 84%, the remaining activity at 1 µM (Mnk2(h)) was 38% and the remaining activity at 1 µM (NEK2(h)) was 105%. The remaining activity at 1 µM (PAK2(h)) was 110%, the remaining activity at 1 µM (PDGFRβ(h)) was 94% and the remaining activity at 1 µM (PI3 Kinase (p120g)(h)) was 96%. The remaining activity at 1 µM (PKA(h)) was 101%, the remaining activity at 1 µM (PKBα(h)) was 106% and the remaining activity at 1 µM (PKCα(h)) was 73%. For the same molecule, the remaining activity at 1 µM (PKCθ(h)) was 108%, the remaining activity at 1 µM (PKG1α(h)) was 105% and the remaining activity at 1 µM (PRAK(h)) was 74%. It also gave a remaining activity at 1 µM (Pim-1(h)) of 101%, a remaining activity at 1 µM (Plk3(h)) of 100% and a remaining activity at 1 µM (ROCK-I(h)) of 117%. For the same molecule, the remaining activity at 1 µM (Rse(h)) was 109%, the remaining activity at 1 µM (Rsk1(h)) was 105% and the remaining activity at 1 µM (SAPK2a(h)) was 105%. For the same molecule, the remaining activity at 1 µM (SRPK1(h)) was 105%, the remaining activity at 1 µM (TAK1(h)) was 45% and the remaining activity at 1 µM (eEF-2K(h)) was 100%. For the same molecule, the remaining activity at 1 µM (mTOR(h)) was 100%, the remaining activity at 1 µM (p70S6K(h)) was 100% and the half-life at 1 mM (physchem) was greater than 72 h. The remaining activity at 1 µM (CK1γ1(h)) was 85% and the remaining activity at 1 µM (CK2α2(h)) was 39%.
